# Measurements as given in article PMC4459817, “Vasculotide reduces endothelial permeability and tumor cell extravasation in the absence of binding to or agonistic activation of Tie2” (EMBO Molecular Medicine, 2015).
# Entries after “also recorded” stand apart in the source; their conditions may differ.
# Tests used:
# mouse Tie2-Fc (mTie2-Fc) = biological target: T1, mouse Tie2-Fc (mTie2-Fc) (Mus musculus, UniProt Q02858); experiment: SPR binding to mouse Tie2-Fc; conditions: mouse Tie2-Fc (low- and high-density), 37°C, pH 7.4, Supplementary Fig S3
# T1 construct: Purified human or mouse Tie2-Fc (i.e., Fc-conjugated extracellular domains of Tie2); purchased R&D Systems 762-T2-100
# Excerpt: To better understand the difficulties we had in observing Tie2 activation by VT, we sought to characterize the binding affinity and kinetics of VT to Tie2. Purified human or mouse Tie2-Fc (i.e., Fc-conjugated extracellular domains of Tie2) were first coupled to protein A sepharose beads for pull-down experiments (Fig9A and B) or immobilized on a Biacore CM5 sensor chip for surface plasmon resonance (SPR) experiments (Fig9C and Supplementary Fig S3). […]
# 9. Tie2 Receptor-Binding Assays
# Vasculotide (VT) was manufactured by Bachem UK Ltd. T7c (CHHHRHSF) was synthesized by Genscript (Piscataway, NJ, USA). PEG-Cys consists of a single cysteine reacted to each of the 4 arms of PEG-maleimide (Sunbright PTE-100MA, NOF Corporation, Tokyo, Japan). BowAng1 (Ang1-Fd-Fc-Fd) was made and provided by Regeneron Pharmaceuticals, Inc. (Tarrytown, NY, USA). COMP-Ang1 was purified in the Kerbel lab from serum-free culture media conditioned by an engineered CHO cell line provided by Dr. Gou Young Koh (KAIST), according to published protocols (Hwang et al, 2008).
# Recombinant human Angiopoietin-1 (rhAng1) and Vascular Endothelial Growth Factor ( rhVEGF) were […]
# purchased from R&D Systems. […]
# (structural/molecular weight control for VT), and 40 μL of supernatant (7% of residual/unbound ligand) – were similarly boiled in SDS sample buffer. […]
# Binding analysis were performed by exposure of immobilized mTie2-Fc to the analytes diluted in HBS-EP (0.01M HEPES pH 7.4, 0.15M NaCl, 3mM EDTA, 0.005% v/v Tween-20), which was supplemented with 1mg/mL carboxymethyl dextran (NSB reducer, GE Healthcare) to reduce non-specific binding to the sensor chip. […] To quantitatively determine the kinetic properties of the interaction (KD, kd, ka) and avoid mass transport limitations, mTie2-Fc and hTie2-Fc were immobilized at low density (1,000-1,200RU) onto separate flow cells of the CM5 chip using amine coupling chemistry. […] All data were analysed using BIA Evaluation Software 2.0 (GE Healthcare) to calculate kd, ka and KD using the 1:1 ligand binding model. […]
# [1] = system: human microvascular ECs of dermal blood vessel origin (HMVEC-DBl); experiment: modified Boyden chamber, thrombin-stimulated FITC-dextran permeability, HMVEC-DBl; assay type: cell-based; conditions: HMVEC-DBl; structural control alone; Fig1D
# Description: ECs were first treated with Vasculotide (VT), PBS (vehicle/negative control), Ang1 (positive control), PEG-Cys (polyethylene glycol backbone), T7c (non-PEGylated CHHHRHSF peptides), or VT in the presence of 100-fold molar excess of T7c. The concentrations used, 10–20 ng/mL VT and 200–400 ng/mL Ang1, are estimated molar equivalents (0.71–1.43 nM). Thirty minutes later, ECs were stimulated with thrombin, 0.1% BSA (vehicle/negative control), or EDTA (positive control). Another 30mins later, the amount of FITC-dextran diffusion into the lower chambers (A, D) provides a measure of endothelial permeability. CMTPX-labeled tumor cells (TCs) were then dispensed into inserts, and the amount of TC fluorescence emitting from the underside of insert membranes after 20 h (B–C) or 28 h (E) reflects the efficiency of trans-endothelial TC migration. Representative fluorescent images (10×) of membrane undersides are shown in (C), where DAPI-stained nuclei of ECs/TCs are shown in blue, ‘extravasated’ CMTPX-labeled TCs are shown in red, and the # of CMTPX^+ pixels are shown numerically in red. Means ± SEM are shown (A,B,D,E). Three experiments (twice with HMVEC-LBl and once with HMVEC-DBl) were run with n = 3–5 inserts (independent biological replicates) per group and analyzed by two-sampled unpaired t-tests. […]
# Endothelial cells (ECs) were grown on cell culture inserts with uncoated 8-μm-pore PET filter membranes to 100% confluency. […] After 30 min of thrombin stimulation or 4–6 h of TC-CM stimulation, FITC fluorescence (ex/em = 490/520 nm) was measured from a 50 μl sample of the lower chamber media. […] CMPTX fluorescence from migrated TCs was then quantified from 10× microscopy images using a MATLAB (MathWorks, Natick, MA, USA) script; five images (technical replicates) were analyzed per insert. […]
# T1 sequence (Q02858 23-746 limits assumed): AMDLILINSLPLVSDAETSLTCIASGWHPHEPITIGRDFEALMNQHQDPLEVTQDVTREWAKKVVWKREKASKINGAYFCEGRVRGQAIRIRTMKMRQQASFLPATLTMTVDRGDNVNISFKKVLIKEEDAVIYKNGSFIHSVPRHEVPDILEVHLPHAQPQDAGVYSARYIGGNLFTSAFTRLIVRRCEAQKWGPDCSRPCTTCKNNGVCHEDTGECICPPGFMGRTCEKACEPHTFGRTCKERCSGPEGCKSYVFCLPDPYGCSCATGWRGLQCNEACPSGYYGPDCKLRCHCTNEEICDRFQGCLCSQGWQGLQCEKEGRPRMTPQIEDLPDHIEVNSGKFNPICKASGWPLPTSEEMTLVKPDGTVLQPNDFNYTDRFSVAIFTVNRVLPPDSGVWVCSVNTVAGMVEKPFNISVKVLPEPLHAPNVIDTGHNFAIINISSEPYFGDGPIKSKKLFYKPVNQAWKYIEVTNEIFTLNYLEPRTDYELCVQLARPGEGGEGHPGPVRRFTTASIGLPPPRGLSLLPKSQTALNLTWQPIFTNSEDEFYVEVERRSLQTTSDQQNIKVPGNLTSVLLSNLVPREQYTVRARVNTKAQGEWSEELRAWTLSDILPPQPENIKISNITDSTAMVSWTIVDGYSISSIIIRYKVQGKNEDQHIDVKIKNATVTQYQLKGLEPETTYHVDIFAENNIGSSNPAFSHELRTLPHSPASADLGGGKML
sequence,measurement,setting,value
"CHHHRHSF [T7c, non-PEGylated CHHHRHSF peptides, reference compound]",binding to Tie2-Fc,mouse Tie2-Fc (mTie2-Fc),no binding to Tie2-Fc was detectable; also recorded: undetectable binding
same,"trans-endothelial permeability, structural components of VT",[1],partial effects
